Laboratory results reported in PubChem BioAssay AID2060614 (Molecular Pharmacology Branch, DTP, NCI, 2025).
pIC50: −log10 of the molar value.

System: 598228-144-R-J1-PDC complex spheroids, viability
Test: Anticancer human tumor 598228-144-R-J1-PDC patient-derived serous endometrial adenocarcinoma cell line growth inhibition [CLK]
Conditions: for pIC50: curve of first compound; for viability, T/C: stronger effect = lower value
Outline: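 Multi-cell-type spheroids combined patient-derived tumor cells with HUVEC endothelial cells and human mesenchymal stem cells. Paired agents were dosed in half-log steps down from about clinical Cmax, or from 10 microM where Cmax was unknown.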

[1] = second compound 0.0316 µM, first compound 0.0316 µM
[2] = second compound 0.0316 µM, first compound 0.1 µM
[3] = second compound 0.0316 µM, first compound 0.316 µM
[4] = second compound 0.0316 µM, first compound 1 µM
[5] = second compound 0.0316 µM, first compound 3.16 µM
[6] = second compound 0.0316 µM, first compound 10 µM
[7] = second compound 0.1 µM, first compound 0.0316 µM
[8] = second compound 0.1 µM, first compound 0.1 µM
[9] = second compound 0.1 µM, first compound 0.316 µM
[10] = second compound 0.1 µM, first compound 1 µM
[11] = second compound 0.1 µM, first compound 3.16 µM
[12] = second compound 0.1 µM, first compound 10 µM
[13] = second compound 0.316 µM, first compound 0.0316 µM
[14] = second compound 0.316 µM, first compound 0.1 µM
[15] = second compound 0.316 µM, first compound 0.316 µM
[16] = second compound 0.316 µM, first compound 1 µM
[17] = second compound 0.316 µM, first compound 3.16 µM
[18] = second compound 0.316 µM, first compound 10 µM
[19] = second compound 1 µM, first compound 0.0316 µM
[20] = second compound 1 µM, first compound 0.1 µM
[21] = second compound 1 µM, first compound 0.316 µM
[22] = second compound 1 µM, first compound 1 µM
[23] = second compound 1 µM, first compound 3.16 µM
[24] = second compound 1 µM, first compound 10 µM
[25] = second compound 3.16 µM, first compound 0.0316 µM
[26] = second compound 3.16 µM, first compound 0.1 µM
[27] = second compound 3.16 µM, first compound 0.316 µM
[28] = second compound 3.16 µM, first compound 1 µM
[29] = second compound 3.16 µM, first compound 3.16 µM
[30] = second compound 3.16 µM, first compound 10 µM
[31] = second compound 10 µM, first compound 0.0316 µM
[32] = second compound 10 µM, first compound 0.1 µM
[33] = second compound 10 µM, first compound 0.316 µM
[34] = second compound 10 µM, first compound 1 µM
[35] = second compound 10 µM, first compound 3.16 µM
[36] = second compound 10 µM, first compound 10 µM
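Further: spheroids exposed to compounds for seven days before readout.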
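Wherever viability, T/C is given: 100% = DMSO vehicle control wells.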

`C=C(F)C(=O)N1CCN(c2nc(OCC3CCCN3C)nc3c2CCN(c2cccc4cccc(Cl)c24)C3)CC1CC#N` (stereo unspecified) + CNC(=O)c1ccc(Nc2nc(OC3CCCC3)c3c(-c4ccc5nc(C)oc5c4)c[nH]c3n2)c(OC)c1 was tested, and the pIC50 (second compound 0.0316 µM) was 5.29, the pIC50 (second compound 0.1 µM) was 5.29 and the pIC50 (second compound 0.316 µM) was 5.29. For the same compound, the pIC50 (second compound 1 µM) was 5.34, the pIC50 (second compound 3.16 µM) was 5.32 and the pIC50 (second compound 10 µM) was 5.39. It also gave a viability, T/C [1] of 108%, a viability, T/C [2] of 115% and a viability, T/C [3] of 98.6%. For the same compound, the viability, T/C [4] was 99.7%, the viability, T/C [5] was 85.7% and the viability, T/C [6] was 1.18%. It also gave a viability, T/C [7] of 104%, a viability, T/C [8] of 101% and a viability, T/C [9] of 96.2%. It also gave a viability, T/C [10] of 97.7%, a viability, T/C [11] of 81.5% and a viability, T/C [12] of 4.78%. For the same compound, the viability, T/C [13] was 102%, the viability, T/C [14] was 98.6% and the viability, T/C [15] was 89.3%. For the same compound, the viability, T/C [16] was 107%, the viability, T/C [17] was 83.9% and the viability, T/C [18] was 1.64%. For the same compound, the viability, T/C [19] was 100%, the viability, T/C [20] was 89.7% and the viability, T/C [21] was 89.3%. The viability, T/C [22] was 92.4%, the viability, T/C [23] was 72.9% and the viability, T/C [24] was 2.52%. The viability, T/C [25] was 85.3%, the viability, T/C [26] was 90.9% and the viability, T/C [27] was 92.9%. It also gave a viability, T/C [28] of 91.1%, a viability, T/C [29] of 77.3% and a viability, T/C [30] of 3.14%. The viability, T/C [31] was 86.3%, the viability, T/C [32] was 82.7% and the viability, T/C [33] was 83.4%. For the same compound, the viability, T/C [34] was 80.8%, the viability, T/C [35] was 62.8% and the viability, T/C [36] was 3.36%.

Compound `O=c1[nH]cc(F)c(=O)[nH]1` + CNC(=O)c1ccc(Nc2nc(OC3CCCC3)c3c(-c4ccc5nc(C)oc5c4)c[nH]c3n2)c(OC)c1 has a pIC50 (second compound 0.0316 µM) of under 5.00, a pIC50 (second compound 0.1 µM) of under 5.00 and a pIC50 (second compound 0.316 µM) of under 5.00. The pIC50 (second compound 1 µM) was under 5.00, the pIC50 (second compound 3.16 µM) was under 5.00 and the pIC50 (second compound 10 µM) was under 5.00. It also gave a viability, T/C [1] of 99.7%, a viability, T/C [2] of 113% and a viability, T/C [3] of 107%. The viability, T/C [4] was 103%, the viability, T/C [5] was 99.9% and the viability, T/C [6] was 86.5%. For the same compound, the viability, T/C [7] was 116%, the viability, T/C [8] was 111% and the viability, T/C [9] was 128%. It also gave a viability, T/C [10] of 115%, a viability, T/C [11] of 101% and a viability, T/C [12] of 76.6%. For the same compound, the viability, T/C [13] was 108%, the viability, T/C [14] was 106% and the viability, T/C [15] was 110%. The viability, T/C [16] was 112%, the viability, T/C [17] was 96.2% and the viability, T/C [18] was 90%. The viability, T/C [19] was 102%, the viability, T/C [20] was 99.7% and the viability, T/C [21] was 94.5%. It also gave a viability, T/C [22] of 101%, a viability, T/C [23] of 93.4% and a viability, T/C [24] of 83.6%. It also gave a viability, T/C [25] of 95%, a viability, T/C [26] of 97% and a viability, T/C [27] of 97.1%. For the same compound, the viability, T/C [28] was 83.1%, the viability, T/C [29] was 94.5% and the viability, T/C [30] was 77.3%. For the same compound, the viability, T/C [31] was 87.8%, the viability, T/C [32] was 86.6% and the viability, T/C [33] was 89.8%. It also gave a viability, T/C [34] of 88.5%, a viability, T/C [35] of 77.8% and a viability, T/C [36] of 65.2%.

For `COc1ccc([C@@H](O)c2cc(-c3ncnc4cc(N5CCOCC5)ccc34)c(F)cc2Cl)nn1` + CN1CCN(c2cc(C(=O)Nc3cc4cc(-c5cnn(C)c5)ccc4cn3)ccn2)CC1, the pIC50 (second compound 0.0316 µM) was 5.08, the pIC50 (second compound 0.1 µM) was 5.27 and the pIC50 (second compound 0.316 µM) was over 7.50. The pIC50 (second compound 1 µM) was over 7.50, the pIC50 (second compound 3.16 µM) was over 7.50 and the pIC50 (second compound 10 µM) was over 7.50. It also gave a viability, T/C [1] of 122%, a viability, T/C [2] of 123% and a viability, T/C [3] of 105%. It also gave a viability, T/C [4] of 92.7%, a viability, T/C [5] of 65.3% and a viability, T/C [6] of 47.4%. It also gave a viability, T/C [7] of 123%, a viability, T/C [8] of 123% and a viability, T/C [9] of 89%. It also gave a viability, T/C [10] of 88.8%, a viability, T/C [11] of 59.5% and a viability, T/C [12] of 36.8%. The viability, T/C [13] was 15.2%, the viability, T/C [14] was 15.1% and the viability, T/C [15] was 15.9%. It also gave a viability, T/C [16] of 9.86%, a viability, T/C [17] of 7.76% and a viability, T/C [18] of 5.23%. The viability, T/C [19] was 1.49%, the viability, T/C [20] was 1.33% and the viability, T/C [21] was 1.57%. It also gave a viability, T/C [22] of 1.3%, a viability, T/C [23] of 1.12% and a viability, T/C [24] of 3.63%. It also gave a viability, T/C [25] of 1.56%, a viability, T/C [26] of 2.15% and a viability, T/C [27] of 1.78%. The viability, T/C [28] was 2.12%, the viability, T/C [29] was 1.65% and the viability, T/C [30] was 2.04%. The viability, T/C [31] was 0.95%, the viability, T/C [32] was 0.79% and the viability, T/C [33] was 4.21%. It also gave a viability, T/C [34] of 1.31%, a viability, T/C [35] of 3.59% and a viability, T/C [36] of 3.19%.
